Read-outs that look alike come from different tables or passages of the source.
Legend:
Format in all cases: in vivo
[1] = system: barley (winter barley, Hordeum vulgare); assay: Test C postemergence: barley
Outline: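 Pot-grown plants in peat/vermiculite medium sprayed postemergence at 2–18 cm height (1- to 4-leaf stage). Kept in greenhouse 13 to 15 days, then visually rated against untreated controls on a 0–100 scale (0 = no effect, 100 = complete control).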

[2] = system: wheat, spring (spring wheat, Triticum aestivum); assay: Test D pre-/postemergence: wheat, spring
Text: (§1) Seeds of plant species selected from bluegrass (annual bluegrass, Poa annua), blackgrass (Alopecurus myosuroides), canarygrass (Phalaris minor), chickweed (common chickweed, Stellaria media), galium (catchweed bedstraw, Galium aparine), bromegrass, downy (downy bromegrass, Bromus tectorum), field poppy (Papaver rhoeas), field violet (Viola arvensis), foxtail, green (green foxtail, Setaria viridis), deadnettle (henbit deadnettle, Lamium amplexicaule), ryegrass, Italian (Italian ryegrass, Lolium multiflorum), kochia (Kochia scoparia), lambsquarters (Chenopodium album), oilseed rape (Brassica napus), pigweed (Amaranthus retroflexus), Russian thistle (Salsola iberica), chamomile (scentless chamomile, Matricaria inodora), speedwell (bird's-eye speedwell, Veronica persica), barley, spring (spring barley, Hordeum vulgare), wheat, spring (spring wheat, Triticum aestivum), buckwheat, wild (wild buckwheat, Polygonum convolvulus), mustard, wild (wild mustard, Sinapis arvensis), oat, wild (wild oat, Avena fatua), radish, wild (wild radish, Raphanus raphanistrum), windgrass (Apera spica-venti), barley, winter (winter barley, Hordeum vulgare), and wheat, winter (winter wheat, Triticum aestivum) were planted into a silt loam soil and treated preemergence with test chemicals formulated in a non-phytotoxic solvent mixture which included a surfactant. At the same time, these same crop and weed species were planted in pots containing the planting medium comprising spaghnum peat moss, vermiculite, wetting agent and starter nutrients and treated with postemergence applications of the test chemicals formulated in the same manner. Plants ranged in height from 2 to 18 cm (1- to 4-leaf stage).
(§2) Treated plants and controls were maintained in a controlled growth environment for 14 to 21 days after which time all species were compared to controls and visually evaluated. Plant response ratings, summarized in Table D, are based on a scale of 0 to 100 where 0 is no effect and 100 is complete control. A dash (-) response means no test result.

[3] = system: barnyardgrass (Echinochloa crus-galli); assay: Test C flooded paddy test: barnyardgrass; details: Echinochloa crus-galli, scale 0 to 100 (0 no effect, 100 complete control), read-out: Plant response rating, Barnyardgrass; for pest or weed control at 62 g/ha: 62 g ai/ha; for pest or weed control at 125 g/ha: 125 g ai/ha; for pest or weed control at 250 g/ha: 250 g ai/ha; for pest or weed control at 31 g/ha: 31 g ai/ha
Outline: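 Plants were grown to the 2-leaf stage, pots flooded to 3 cm above soil, and test compounds applied directly to the paddy water, with that depth held throughout. After 13 to 15 days in a greenhouse, injury was visually rated against controls on a 0 (no effect) to 100 (complete control) scale.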

[4] = system: pigweed (Amaranthus retroflexus); assay: Test D pre-/postemergence: pigweed
Text: as §1, §2

[5] = system: mustard, wild (wild mustard, Sinapis arvensis); assay: Test D pre-/postemergence: mustard, wild
Text: as §1, §2

[6] = system: Russian thistle (Salsola iberica); assay: Test D pre-/postemergence: Russian thistle
Outline: (§3)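 Visual 0–100 rating versus untreated controls (0 no effect, 100 complete control), taken 14 to 21 days after treatment in a controlled growth environment. Preemergence: silt loam soil. Postemergence: peat moss/vermiculite medium, plants 2 to 18 cm, 1- to 4-leaf stage. Solvent mixture with surfactant.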

[7] = system: foxtail, green (green foxtail, Setaria viridis); assay: Test D pre-/postemergence: foxtail, green
Outline: as §3

[8] = system: ryegrass, Italian (Italian ryegrass, Lolium multiflorum); assay: Test D pre-/postemergence: ryegrass, Italian
Text: as §1, §2

[9] = system: sedge, umbrella (small-flower umbrella sedge Cyperus difformis); assay: Test B flooded paddy: sedge, umbrella; details: Flood; 250 g ai/ha; applied to paddy water at 2-leaf stage; visually evaluated after 13 to 15 days
Outline: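 Plants were grown to the 2-leaf stage, then pots were flooded to 3 cm above the soil and compounds were applied directly into the paddy water. Water depth was held for the whole test; after 13 to 15 days in a greenhouse, injury was visually rated against untreated controls (0 = no effect, 100 = complete control).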

[10] = 62 g ai/ha, scale 0 to 100 (0 no effect, 100 complete control)
[11] = 125 g ai/ha, scale 0 to 100, 0 no effect, 100 complete control
[12] = Postemergence, 31 g ai/ha, scale 0 to 100 (0 no effect, 100 complete control)
[13] = Postemergence, 62 g ai/ha, scale 0 to 100 (0 no effect, 100 complete control)
[14] = Postemergence, 125 g ai/ha, scale 0 to 100, 0 no effect, 100 complete control
[15] = Postemergence, 250 g ai/ha, scale 0 to 100 (0 no effect, 100 complete control)
[16] = Postemergence, 16 g ai/ha, scale 0 to 100
[17] = Preemergence, 16 g ai/ha, scale 0 to 100 (0 no effect, 100 complete control)
[18] = Preemergence, 31 g ai/ha, scale 0 to 100 (0 no effect, 100 complete control)
[19] = Preemergence, 62 g ai/ha, scale 0 to 100
[20] = Preemergence, 125 g ai/ha, scale 0 to 100
[21] = Preemergence, 250 g ai/ha, scale 0 to 100
[22] = Flood (flooded paddy test), visual rating after 13 to 15 days
[23] = 31 g ai/ha, scale 0 to 100 (0 no effect, 100 complete control)

## Cc1nn(-c2ccc(F)cc2)nc1Cc1ccnc(C(F)(F)F)c1 [Compound 16, 4-[[2-(4-fluorophenyl)-5-methyl-2H-1,2,3-triazol-4-yl]methyl]-2-(trifluoromethyl)pyridine]
[1]; [10]
  Plant response rating, Barley: 35
[1]; [11]
  Plant response rating, Barley: 45
[1]; 250 g ai/ha, scale 0 to 100
  Plant response rating, Barley: 45
[2]; [12]
  Plant response rating: Wheat, Spring: 10
[2]; [13]
  Plant response rating: Wheat, Spring: 10
[2]; [14]
  Plant response rating: Wheat, Spring: 15
[2]; [15]
  Plant response rating: Wheat, Spring: 20
[2]; [16]
  Plant response rating, Wheat, Spring: 5
[2]; [17]
  Plant response rating, Wheat, Spring: 0
[2]; [18]
  Plant response rating, Wheat, Spring: 0
[2]; [19]
  Plant response rating, Wheat, Spring: 0
[2]; [20]
  Plant response rating, Wheat, Spring: 5
[2]; [21]
  Plant response rating, Wheat, Spring: 10
[3]; [22]
  pest or weed control at 62 g/ha: 65%
  pest or weed control at 125 g/ha: 70%
  pest or weed control at 250 g/ha: 80%
[3]; Flood
  pest or weed control at 31 g/ha: 25%
[4]; [12]
  Plant response rating: Pigweed: 70
[4]; [13]
  Plant response rating: Pigweed: 80
[4]; [14]
  Plant response rating: Pigweed: 90
[4]; [15]
  Plant response rating: Pigweed: 100
[4]; [16]
  Plant response rating, Pigweed: 50
[4]; [17]
  Plant response rating, Pigweed: 25
[4]; [18]
  Plant response rating, Pigweed: 80
[4]; [19]
  Plant response rating, Pigweed: 80
[4]; [20]
  Plant response rating, Pigweed: 90
[4]; [21]
  Plant response rating, Pigweed: 100
[5]; [13]
  Plant response rating: Mustard, Wild: 90
[5]; [15]
  Plant response rating: Mustard, Wild: 100
[5]; [16]
  Plant response rating, Mustard, Wild: 10
[5]; [17]
  Plant response rating, Mustard, Wild: 0
[5]; [18]
  Plant response rating, Mustard, Wild: 0
[5]; [19]
  Plant response rating, Mustard, Wild: 100
[5]; [20]
  Plant response rating, Mustard, Wild: 100
[5]; [21]
  Plant response rating, Mustard, Wild: 100
[6]; [12]
  Plant response rating: Russian Thistle: 95
[6]; [13]
  Plant response rating: Russian Thistle: 100
[6]; [14]
  Plant response rating: Russian Thistle: 100
[6]; [15]
  Plant response rating: Russian Thistle: 100
[6]; [16]
  Plant response rating, Russian Thistle: 90
[6]; [17]
  Plant response rating, Russian Thistle: 0
[6]; [18]
  Plant response rating, Russian Thistle: 35
[6]; [19]
  Plant response rating, Russian Thistle: 40
[6]; [21]
  Plant response rating, Russian Thistle: 90
[7]; [12]
  Plant response rating: Foxtail, Green: 30
[7]; [13]
  Plant response rating: Foxtail, Green: 80
[7]; [14]
  Plant response rating: Foxtail, Green: 90
[7]; [15]
  Plant response rating: Foxtail, Green: 95
[7]; [16]
  Plant response rating, Foxtail, Green: 30
[7]; [17]
  Plant response rating, Foxtail, Green: 25
[7]; [18]
  Plant response rating, Foxtail, Green: 100
[7]; [19]
  Plant response rating, Foxtail, Green: 100
[7]; [20]
  Plant response rating, Foxtail, Green: 100
[7]; [21]
  Plant response rating, Foxtail, Green: 100
[8]; [12]
  Plant response rating: Ryegrass, Italian: 20
[8]; [13]
  Plant response rating: Ryegrass, Italian: 25
[8]; [14]
  Plant response rating: Ryegrass, Italian: 30
[8]; [15]
  Plant response rating: Ryegrass, Italian: 35
[8]; [16]
  Plant response rating, Ryegrass, Italian: 10
[8]; [17]
  Plant response rating, Ryegrass, Italian: 0
[8]; [18]
  Plant response rating, Ryegrass, Italian: 0
[8]; [19]
  Plant response rating, Ryegrass, Italian: 10
[8]; [20]
  Plant response rating, Ryegrass, Italian: 60
[8]; [21]
  Plant response rating, Ryegrass, Italian: 60

## Cc1nn(-c2ccc(F)cc2)nc1Oc1ccnc(C(F)(F)F)c1 [Compound 129, 4-[[2-(4-fluorophenyl)-5-methyl-2H-1,2,3-triazol-4-yl]oxy]-2-(trifluoromethyl)pyridine]
[1]; [23]
  Plant response rating, Barley: 30
[1]; [10]
  Plant response rating, Barley: 35
[1]; [11]
  Plant response rating, Barley: 45
[1]; 250 g ai/ha, scale 0 to 100
  Plant response rating, Barley: 50
[2]; [12]
  Plant response rating: Wheat, Spring: 10
[2]; [13]
  Plant response rating: Wheat, Spring: 10
[2]; [14]
  Plant response rating: Wheat, Spring: 15
[2]; [15]
  Plant response rating: Wheat, Spring: 20
[2]; [16]
  Plant response rating, Wheat, Spring: 5
[2]; [17]
  Plant response rating, Wheat, Spring: 0
[2]; [18]
  Plant response rating, Wheat, Spring: 0
[2]; [19]
  Plant response rating, Wheat, Spring: 0
[2]; [20]
  Plant response rating, Wheat, Spring: 5
[2]; [21]
  Plant response rating, Wheat, Spring: 15
[3]; [22]
  pest or weed control at 125 g/ha: 80%
  pest or weed control at 250 g/ha: 85%
[3]; Flood
  pest or weed control at 31 g/ha: 55%
  pest or weed control at 62 g/ha: 75%
[4]; [12]
  Plant response rating: Pigweed: 100
[4]; [13]
  Plant response rating: Pigweed: 100
[4]; [14]
  Plant response rating: Pigweed: 100
[4]; [15]
  Plant response rating: Pigweed: 100
[4]; [16]
  Plant response rating, Pigweed: 100
[4]; [17]
  Plant response rating, Pigweed: 30
[4]; [18]
  Plant response rating, Pigweed: 80
[4]; [19]
  Plant response rating, Pigweed: 90
[4]; [20]
  Plant response rating, Pigweed: 100
[4]; [21]
  Plant response rating, Pigweed: 100
[5]; [17]
  Plant response rating, Mustard, Wild: 0
[5]; [18]
  Plant response rating, Mustard, Wild: 5
[5]; [19]
  Plant response rating, Mustard, Wild: 40
[5]; [20]
  Plant response rating, Mustard, Wild: 80
[5]; [21]
  Plant response rating, Mustard, Wild: 100
[6]; [12]
  Plant response rating: Russian Thistle: 98
[6]; [13]
  Plant response rating: Russian Thistle: 100
[6]; [14]
  Plant response rating: Russian Thistle: 100
[6]; [15]
  Plant response rating: Russian Thistle: 100
[6]; [16]
  Plant response rating, Russian Thistle: 98
[6]; [17]
  Plant response rating, Russian Thistle: 80
[6]; [18]
  Plant response rating, Russian Thistle: 100
[6]; [19]
  Plant response rating, Russian Thistle: 100
[6]; [20]
  Plant response rating, Russian Thistle: 100
[6]; [21]
  Plant response rating, Russian Thistle: 100
[7]; [12]
  Plant response rating: Foxtail, Green: 35
[7]; [13]
  Plant response rating: Foxtail, Green: 85
[7]; [14]
  Plant response rating: Foxtail, Green: 95
[7]; [15]
  Plant response rating: Foxtail, Green: 100
[7]; [16]
  Plant response rating, Foxtail, Green: 35
[7]; [17]
  Plant response rating, Foxtail, Green: 5
[7]; [18]
  Plant response rating, Foxtail, Green: 90
[7]; [19]
  Plant response rating, Foxtail, Green: 100
[7]; [20]
  Plant response rating, Foxtail, Green: 100
[7]; [21]
  Plant response rating, Foxtail, Green: 100
[8]; [12]
  Plant response rating: Ryegrass, Italian: 5
[8]; [13]
  Plant response rating: Ryegrass, Italian: 5
[8]; [14]
  Plant response rating: Ryegrass, Italian: 10
[8]; [15]
  Plant response rating: Ryegrass, Italian: 15
[8]; [16]
  Plant response rating, Ryegrass, Italian: 5
[8]; [17]
  Plant response rating, Ryegrass, Italian: 0
[8]; [18]
  Plant response rating, Ryegrass, Italian: 5
[8]; [19]
  Plant response rating, Ryegrass, Italian: 10
[8]; [20]
  Plant response rating, Ryegrass, Italian: 70
[8]; [21]
  Plant response rating, Ryegrass, Italian: 90

## Fc1ccc(-n2nc(Cc3ccnc(C(F)(F)F)c3)c(OCC(F)(F)F)n2)cc1 [Compound 142]
[1]; [23]
  Plant response rating, Barley: 20
[1]; [10]
  Plant response rating, Barley: 35
[1]; [11]
  Plant response rating, Barley: 40
[1]; 250 g ai/ha, scale 0 to 100
  Plant response rating, Barley: 45
[9]
  Plant response rating, Sedge, Umbrella (0 to 100 scale, 0 is no effect, 100 is complete control): 90

Source: patent US9302999B2, “Substituted triazoles as herbicides” (E. I. DU PONT DE NEMOURS AND COMPANY, priority 2012, dated 2016)
